How the values were obtained:
Type in all cases: cell-based, influenza virus
[1] = tested on: rgA/Giessen/6/09 (H1N1-WT)
[2] = tested on: rgA/Victoria/3/75 (H3N2-WT)
[3] = tested on: wild type (wt) strain of A/Mississippi/3/2001 (H1N1)

Question: Which results are given for O=C(O)c1ccc(F)c(F)c1Nc1ccc(I)cc1Cl [ATR002, 2-(2-chloro-4-iodophenylamino)-N-3,4-difluoro benzoic acid]?
Answer: activity lower (than BLXM) [1]: 13%; antiviral activity [2]: revealed its potency against both variants

Question: Which “reduction of the viral titer” value [1] does the source give for COC(=O)OCOc1c2n(ccc1=O)N([C@@H]1c3ccccc3SCc3c1ccc(F)c3F)[C@@H]1COCCN1C2=O [BLXM] here?
Answer: approximate complete reduction of the viral titer

Question: For O=C(NOCC1CC1)c1ccc(F)c(F)c1Nc1ccc(I)cc1Cl [CI-1040], which antiviral effectiveness [3] is on record?
Answer: very effective

Question: Which antiviral effectiveness [3] does the source give for CCOC(=O)C1=C[C@@H](OC(CC)CC)[C@H](NC(C)=O)[C@@H](N)C1 [oseltamivir] here?
Answer: very effective
